Counter-ions that a name gives are not always drawn.
Target: Glycogen synthase kinase-3 beta (Homo sapiens, UniProt P49841)
Assay: concentration-response blocking of human GSK3B – biochemical, luminescence, cell-free homogeneous, retest, dose response (AID 434954)

Glycogen synthase kinase-3 beta, sequence (P49841 whole entry): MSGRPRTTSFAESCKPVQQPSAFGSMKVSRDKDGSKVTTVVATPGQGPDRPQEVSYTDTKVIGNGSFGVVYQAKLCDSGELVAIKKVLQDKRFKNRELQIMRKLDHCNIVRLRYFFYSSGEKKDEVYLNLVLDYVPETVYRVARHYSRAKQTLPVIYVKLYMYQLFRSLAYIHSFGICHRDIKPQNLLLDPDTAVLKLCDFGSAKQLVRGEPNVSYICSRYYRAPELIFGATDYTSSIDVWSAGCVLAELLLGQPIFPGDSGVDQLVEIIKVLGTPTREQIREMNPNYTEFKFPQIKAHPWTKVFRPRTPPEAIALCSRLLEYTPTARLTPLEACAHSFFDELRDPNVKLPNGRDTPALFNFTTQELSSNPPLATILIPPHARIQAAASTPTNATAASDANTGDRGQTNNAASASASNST

Compound	EC50 [µM]
Nc1ccc(C(=O)Nc2ccccc2C(=O)O)cc1	> 300
CCOC(=O)C1(Cc2cccc(F)c2)CCN(Cc2cn(CC)nc2C)CC1 [1-[(1-ethyl-3-methyl-4-pyrazolyl)methyl]-4-[(3-fluorophenyl)methyl]-4-piperidinecarboxylic acid ethyl ester]	> 300
CCOC(=O)c1[nH]c(C)c(C(=O)NCc2ccc(OC)cc2)c1C	> 300
CC1(C)CC(CC(=O)NC(=S)Nc2ccc([N+](=O)[O-])cc2)C(=O)O1 (centres undefined) [2-(5,5-dimethyl-2-oxotetrahydro-3-furanyl)-N-{[(4-nitrophenyl)amino]carbonothioyl}acetamide]	26.7
Cc1cc2c(=O)oc(-c3ccc(F)cc3)nc2s1	> 300
Cc1cc(NC(=O)CCN2CCC(C)CC2)ccc1Br [N-(4-bromo-3-methylphenyl)-3-(4-methyl-1-piperidinyl)propanamide;hydrochloride]	> 300
CCN(CC)Cc1c(C(=O)NN=Cc2ccccn2)nnn1-c1nonc1N	9.91
CCN1CCN(c2nc(N)c([N+](=O)[O-])c(Nc3cccc(C)c3)n2)CC1 [2-(4-ethylpiperazin-1-yl)-4-N-(3-methylphenyl)-5-nitropyrimidine-4,6-diamine]	> 300
COc1cc([CH+][N-]NC(=O)COc2ccc([N+](=O)[O-])cc2)ccc1OCC(=O)N1CCOCC1 [N-[[3-methoxy-4-[2-(4-morpholinyl)-2-oxoethoxy]phenyl]methylideneamino]-2-(4-nitrophenoxy)acetamide]	> 300
Cn1c(=O)c2[nH]c(CN(Cc3ccccc3)Cc3ccccc3)nc2n(C)c1=O [MLS000081398]	> 300
CC(C)=CCc1c(O)cc2c(c1O)C(=O)CC(c1ccccc1)O2 (centres undefined) [MLS000697639]	> 300
COc1cc(-c2cc(=O)c3c(O)c(OC)c(OC)c(O)c3o2)ccc1O [5,8-dihydroxy-2-(4-hydroxy-3-methoxy-phenyl)-6,7-dimethoxy-chromone]	24.9
COc1cc(OC)c2c(-c3ccccc3)cc(=O)oc2c1 [5,7-dimethoxy-4-phenyl-chromen-2-one]	> 300
N#CC(=Cc1c[nH]nc1-c1ccc(Br)cc1)C(=O)O [(Z)-3-[5-(4-bromophenyl)-1H-pyrazol-4-yl]-2-cyanoprop-2-enoic acid]	> 300
CN(c1ncnc(N)c1[N+](=O)[O-])C1CCCCC1	2.57
Nc1nc(NCCCN2CCOCC2)nc(Nc2cccc(Cl)c2)c1[N+](=O)[O-] [MLS000769815]	4.25
Cc1ccc(C)c(CSc2nnc(-c3cccnc3)o2)c1 [MLS000074430]	> 300
O=C(NN=CC1=CC(=O)C(=O)CC1)NN=CC1=CC(=O)C(=O)CC1 [1,3-bis[[(Z)-(3-hydroxy-4-oxocyclohexa-2,5-dien-1-ylidene)methyl]amino]urea]	13.3
CC1(C)CC(=O)C=C(Nc2cccc(Cl)c2Cl)C1 [3-[(2,3-dichlorophenyl)amino]-5,5-dimethylcyclohex-2-en-1-one]	> 300

Next, values leading:

EC50 [µM]	Compound
> 300	O=C1NC(=NNc2ccccc2)SC1=Cc1ccccc1 [SMR000174572]
> 300	COc1ccc(S(=O)(=O)CC(=O)c2cc3cccc(C)c3oc2=O)cc1 [SMR000634140]
> 300	COCC/N=C1\Sc2nc3c(C)cccc3cc2CN1Cc1ccco1 [SMR000122349]
> 300	CN(C)S(=O)(=O)c1cc(NC(=O)COC(=O)Cc2ccc(Br)cc2)ccc1Cl [SMR000243172]
> 300	NS(=O)(=O)c1cccc(NC(=O)COC(=O)/C(=C/c2cccs2)c2cccs2)c1 [SMR000242820]
> 300	COc1ccc2cc(C(=O)C3CCCN(C(=O)c4sc(C)nc4C)C3)ccc2c1 (centres undefined) [SMR000653741]
> 300	COc1cccc(CNS(=O)(=O)c2cc(CN3C(=O)c4cccnc4C3=O)ccc2OC)c1 [SMR000630004]
> 300	COc1ccc(OC)c(C2Nc3ccccc3N=C3CC(C)(C)CC(=O)C32)c1 (centres undefined) [SMR000515998]
160	CCOC(=O)c1nnn(-c2nonc2N)c1CSc1ccc(C)cc1 [SMR000020597]
21.4	CC1(C)Nc2ccc(O)cc2-c2c1ssc2=S [SMR000038969]

— BindingDB's records for doi:10.7270/Q2TX3CTT (Broad Institute, 2010)
